Data on four molecules can be found in US20230089899A1, “METHOD FOR NON-TARGETED CHARACTERISATION OF A SOLUTION COMPRISING A PLURALITY OF SOLUTES” (COMMISSARIAT A L'ENERGIE ATOMIQUE ET AUX ENERGIES …, priority 2021, published 2023).

The conditions of data set [1]: theoretical log D; cited from earlier work.
The nature of data set [2]: physchem. The source says: The total quantity of moles of the solutes in the mixture (i.e. n0) is approximately 5×10^−4 moles. The pH of the mixture is approximately 7.4 (phosphate buffer: PBS).
A sequence of 3 rows of partitions—as illustrated in FIG. 2—is applied to the mixture by using hydrated n-octanol for the partition of the aqueous mixture and that of the aqueous phases issued from the partitions of rows 1 and 2 (i.e. the phases φ11, φ21 and φ23), and an aqueous solution comprising PBS buffer having a pH of 7 in distilled water for the partition of the organic phases issued from the partitions of rows 1 and 2 (i.e. the phases φ12, φ22 and φ24).
The concentration of each solute in the phases issued from the partitions of rows 1, 2 and 3 (i.e. the phases φ11 to φ38) is monitored by UV-visible spectroscopy but only with the goal of verifying the proper running of the experiment.

[3] abbreviates: pH 7.4, experimental log D, log D of the solutes as verified experimentally, hydrated n-octanol/PBS buffer, UV-visible spectroscopy.
[4] abbreviates: pH 7.4, log D, in the experimental conditions used for this validation, n-octanol/aqueous phase, pH approximately 7.4 (PBS).

Each structure is given as a SMILES string.

In the case of `CC(C)(c1ccc(O)cc1)c1ccc(O)cc1` [BPA, bisphenol A], the “log D^THEOR” value in data set [1] is on record as 3.32. On to `Cn1c(=O)c2[nH]cnc2n(C)c1=O` [Theophylline, theophylline], for which the logD (usually lipophilicity at a set pH, counting ionised and neutral species) in data set [2] (setting [3]) was 0.01; in data set [2] (setting [4]), -0.02. As to `c1ccc2[nH]cnc2c1` [Benzimidazole, benzimidazole], the logD in data set [2] (setting [3]) was 1.33; in data set [2] (setting [4]), 1.34.

Consider `CC(C)=O` [acetone], for which the “log D^THEOR” value in data set [1] is approximately −0.24.
